Values after ≈ are worked out from the molar mass of the structure shown. Read-outs that look alike come from different tables or passages of the source.
Experiments:
[1] = Aqueous solubility in Ringer's buffer at pH 7.5 (HPLC); type: physicochemical
Experimental: A known excess weight of the compound was shaken overnight with a known volume of Ringer's buffer (bicarbonate buffer containing sodium, potassium, calcium and magnesium ions, initially adjusted to pH 7.5). The contents were filtered, and the clear filtrate was analyzed after appropriate dilution using HPLC (UV absorbance detection).

S. pyogenes = assay: In vitro antibacterial activity, agar dilution MIC; type: cell-based; settings: Streptococcus pyogenes, 18 h, S. pyogenes M79061-98
P. mirabilis = assay: In vitro antibacterial activity, agar dilution MIC; type: cell-based; settings: Proteus mirabilis, 18 h
N. gonorrhoeae = assay: In vitro antibacterial activity, agar dilution MIC; type: cell-based; settings: Neisseria gonorrhoeae, 18 h
S. agalactiae = assay: In vitro antibacterial activity, agar dilution MIC; type: cell-based; settings: Streptococcus agalactiae, 18 h; S. agalactiae CMX 508 (Table 1)
B. fragilis = assay: In vitro antibacterial activity, agar dilution MIC; type: cell-based; settings: Bacteroides fragilis
C. difficile = assay: In vitro antibacterial activity, agar dilution MIC; type: cell-based; settings: Clostridioides difficile
L. pneumophila = assay: microbe, parasite or virus in culture; type: cell-based; settings: Legionella pneumophila
[2] = Oral pharmacokinetics, blood level by disk agar diffusion bioassay; type: in vivo, Mice; settings: for serum concentrations / blood levels (in words): versus analogs A and B at 100 mg/kg; for Blood Level of Compound: oral 100 mg/kg
Experimental: Mice were administered the quantity of compound indicated orally, as a single dose. At the specified time intervals, blood was collected from groups of five mice. All samples were assayed by a disk agar diffusion bioassay procedure. Bacillus subtilis 6633 or Klebsiella pneumoniae 10032 were used as the assay organisms, and seek agar medium No. 1 (BBL Microbiology Systems; Cockeysville, MD) was the growth medium. The plates were incubated at 32° C for 18 h and read with an image analyzer (Optomax Inc.).

P. aeruginosa = assay: In vitro antibacterial activity, agar dilution MIC; type: cell-based; settings: Pseudomonas aeruginosa, 18 h
S. aureus = assay: In vitro antibacterial activity, agar dilution MIC; type: cell-based; settings: Staphylococcus aureus
Experimental: (§1) The in vitro antibacterial activity of the test compound was determined by conventional agar dilution procedures. The organisms were grown overnight in brain-heart infusion (BHI) broth (Difco 0037-01-6) at 36° C. Twofold dilutions of the stock solution ([…]) of the test compound were made in BHI agar obtain a test concentration ranging from […]. The plate was inoculated with approximately 10^4 organisms. It was then incubated at 36° C. for 18 h. the minimal inhibitory concentration was the lowest concentration of the test compound that yielded no visible growth on the plate.

E. coli = assay: In vitro antibacterial activity, agar dilution MIC; type: cell-based; settings: Escherichia coli
Experimental: as §1

L. bozemanni = assay: In vitro antibacterial activity, agar dilution MIC; type: cell-based; settings: 18 h; L. bozemanni ATCC 33217
Experimental: as §1

H. influenza = assay: In vitro antibacterial activity, agar dilution MIC; type: cell-based; settings: 18 h
Experimental: as §1

E. faecalis = assay: In vitro antibacterial activity, agar dilution MIC; type: cell-based; settings: Enterococcus faecalis, 18 h
K. pneumoniae = assay: In vitro antibacterial activity, agar dilution MIC; type: cell-based, Klebsiella pneumoniae
[3] = compared with 2-unsubstituted aminopyrrolidine analogs
[4] = ATCC9689, 18 h, C. difficile ATCC 9689
[5] = ATCC17857, 18 h, C. difficile ATCC 17857
[6] = ATCC25923, 18 h, S. aureus ATCC 25923
[7] = ATCC25922, 18 h, E. coli ATCC 25922
[8] = H. influenza 588A, read-out: MIC
[9] = Klebsiella pneumoniae, 18 h, K. pneumoniae CMX 724A, read-out: MIC

Structure (SMILES): CC1CC(N)CN1c1nc2c(cc1F)c(=O)c(C(=O)O)cn2-c1ccc(F)cc1F (stereo not drawn) [Epimer of Example 2]
- solubility ([1]; at pH 7.5 in Ringer's buffer): 340 µg/mL (≈ 813 µM)

Structure (SMILES): CC1CC(N)CN1c1cc2c(cc1F)c(=O)c(C(=O)O)cn2-c1ccc(F)cc1F (stereo not drawn) [Epimer of Example 6]
- solubility ([1]; at pH 7.5 in Ringer's buffer): 182 µg/mL (≈ 436 µM)

Structure (SMILES): C[C@H]1C[C@H](N)CN1c1nc2c(cc1F)c(=O)c(C(=O)O)cn2-c1ccc(F)cc1F [Example 2, (2'S,4'S)-7-(4'-Amino-2'-methylpyrrolidin-1'-yl)-1-(o,p-difluorophenyl)-1,4-dihydro-6-fluoro-4-oxo-1,8-naphthyridine-3-Carboxylic Acid]
- MIC (S. pyogenes): 0.25 µg/mL (≈ 0.598 µM)
- MIC (P. mirabilis; P. mirabilis CMX 704F): 0.25 µg/mL (≈ 0.598 µM)
- MIC (P. mirabilis; P. mirabilis CMX 729B): 0.25 µg/mL (≈ 0.598 µM)
- MIC (N. gonorrhoeae; N. gonorrhoeae 35F AMPI): 0.004 µg/mL (≈ 0.00956 µM)
- MIC (N. gonorrhoeae; N. gonorrhoeae CMX 591): 0.06 µg/mL (≈ 0.143 µM)
- MIC (S. agalactiae): 0.12 µg/mL (≈ 0.287 µM)
- AQUEOUS SOLUBILITY ([1]; at pH 7.5 in Ringer's buffer): 0.15 mg/mL
- solubility properties (in words) [1, 3]: significantly improved aqueous solubility properties
- MIC (B. fragilis; 18 h, B. fragilis AT25285): 0.5 µg/mL (≈ 1.2 µM)
- MIC (B. fragilis; UC2, 18 h, B. fragilis UC-2): 0.5 µg/mL (≈ 1.2 µM)
- MIC (C. difficile; [4]): 1 µg/mL (≈ 2.39 µM)
- MIC (C. difficile; [5]): 1 µg/mL (≈ 2.39 µM)
- MIC (L. pneumophila; 18 h): 0.25 µg/mL (≈ 0.598 µM)
- MIC (L. pneumophila; ATCC33152, 18 h): 0.25 µg/mL (≈ 0.598 µM)
- oral absorption properties (in words) [2, 3]: greatly improved oral absorption properties
- concentration at 0.5 h ([2]; mouse, blood, mice, oral 25 mg/kg, t = 0.5 h, read-out: Blood Level of Compound): 5900 ng/mL
- concentration at 1 h ([2]; mouse, blood, mice, oral 25 mg/kg, t = 1.0 h, read-out: Blood Level of Compound): 3200 ng/mL
- concentration at 2 h ([2]; mouse, blood, mice, oral 25 mg/kg, t = 2.0 h, read-out: Blood Level of Compound): 3300 ng/mL
- concentration at 3 h ([2]; mouse, blood, mice, oral 25 mg/kg, t = 3.0 h, read-out: Blood Level of Compound): 2800 ng/mL
- concentration at 6 h ([2]; mouse, blood, mice, oral 25 mg/kg, t = 6.0 h, read-out: Blood Level of Compound): 1300 ng/mL
- concentration at 24 h ([2]; mouse, blood, mice, oral 25 mg/kg, t = 24.0 h, read-out: Blood Level of Compound): 200 ng/mL
- serum concentrations / blood levels (in words) ([2]; oral 25 mg/kg): still achieve better blood
- serum concentrations / blood levels (in words) ([2]; oral 25 mg/kg, listed as Compound 2): higher serum concentrations
- MIC (P. aeruginosa; P. aeruginosa A 5005): 0.5 µg/mL (≈ 1.2 µM)
- MIC (P. aeruginosa; P. aeruginosa CFS 350F): 0.5 µg/mL (≈ 1.2 µM)
- MIC (P. aeruginosa; P. aeruginosa CFS 387C): 0.5 µg/mL (≈ 1.2 µM)
- MIC (P. aeruginosa; P. aeruginosa CMX 719A): 2 µg/mL (≈ 4.78 µM)
- MIC (S. aureus; 18 h, S. aureus CMX 705): 0.03 µg/mL (≈ 0.0717 µM)
- MIC (S. aureus; 18 h, S. aureus CMX 730A): 0.03 µg/mL (≈ 0.0717 µM)
- MIC (S. aureus; 18 h, S. aureus GYR 1162): 0.03 µg/mL (≈ 0.0717 µM)
- MIC (S. aureus; [6]): 0.06 µg/mL (≈ 0.143 µM)
- MIC (E. coli; 18 h, E. coli CMX 733): 0.03 µg/mL (≈ 0.0717 µM)
- MIC (E. coli; 18 h, E. coli CMX 744A): 0.03 µg/mL (≈ 0.0717 µM)
- MIC (E. coli; 18 h, E. coli CMX 756): 0.03 µg/mL (≈ 0.0717 µM)
- MIC (E. coli; [7]): 0.03 µg/mL (≈ 0.0717 µM)
- MIC (L. bozemanni): 0.25 µg/mL (≈ 0.598 µM)
- MIC (H. influenza; H. influenza 504): 8 ng/mL (≈ 0.0191 µM)
- MIC (H. influenza; H. influenza 519A): 8 ng/mL (≈ 0.0191 µM)
- MIC (H. influenza; H. influenza 566A): 8 ng/mL (≈ 0.0191 µM)
- MIC (H. influenza; [8]): 8 ng/mL (≈ 0.0191 µM)
- MIC (E. faecalis; E. faecalis CMX 729G): 0.25 µg/mL (≈ 0.598 µM)
- MIC (E. faecalis; E. faecalis GYR 1166): 0.5 µg/mL (≈ 1.2 µM)
- MIC (K. pneumoniae; K. pneumoniae CMX 735A): 0.06 MCG/ML
- MIC (K. pneumoniae; [9]): 0.06 µg/mL (≈ 0.143 µM)

Structure (SMILES): NC1CCN(c2nc3c(cc2F)c(=O)c(C(=O)O)cn3-c2ccc(F)cc2F)C1 (stereo not drawn) [Example A, 7-(3-Amino-pyrrolidin-1-yl)-1-(2,4-difluorophenyl)-1,4-dihydro-6-fluoro--oxo-1,8-naphthyridine-3-carboxylic acid, reference compound]
- MIC (S. pyogenes): 0.25 µg/mL (≈ 0.618 µM)
- MIC (P. mirabilis; P. mirabilis CMX 704F): 0.25 µg/mL (≈ 0.618 µM)
- MIC (P. mirabilis; P. mirabilis CMX 729B): 0.12 µg/mL (≈ 0.297 µM)
- MIC (N. gonorrhoeae; N. gonorrhoeae 35F AMPI): 0.004 µg/mL (≈ 0.00989 µM)
- MIC (N. gonorrhoeae; N. gonorrhoeae CMX 591): 0.06 µg/mL (≈ 0.148 µM)
- MIC (S. agalactiae): 0.12 µg/mL (≈ 0.297 µM)
- solubility ([1]; at pH 7.5 in Ringer's buffer): 8 µg/mL (≈ 19.8 µM)
- MIC (B. fragilis; 18 h, B. fragilis AT25285): 0.4 µg/mL (≈ 0.989 µM)
- MIC (B. fragilis; UC2, 18 h, B. fragilis UC-2): 0.8 µg/mL (≈ 1.98 µM)
- MIC (C. difficile; [4]): 1.6 µg/mL (≈ 3.96 µM)
- MIC (C. difficile; [5]): 0.8 µg/mL (≈ 1.98 µM)
- MIC (L. pneumophila; 18 h): 0.25 µg/mL (≈ 0.618 µM)
- MIC (L. pneumophila; ATCC33152, 18 h): 0.25 µg/mL (≈ 0.618 µM)
- Blood Level of Compound ([2]; mice, t = 1.0 h): 2.3 µg/mL
- Blood Level of Compound ([2]; mice, t = 2.0 h): 1.7 µg/mL
- Blood Level of Compound ([2]; mice, t = 3.0 h): 1.7 µg/mL
- Blood Level of Compound ([2]; mice, t = 6.0 h): 0.9 µg/mL
- MIC (P. aeruginosa; P. aeruginosa A 5005): 0.5 µg/mL (≈ 1.24 µM)
- MIC (P. aeruginosa; P. aeruginosa CFS 350F): 0.5 µg/mL (≈ 1.24 µM)
- MIC (P. aeruginosa; P. aeruginosa CFS 387C): 1 µg/mL (≈ 2.47 µM)
- MIC (P. aeruginosa; P. aeruginosa CMX 719A): 2 µg/mL (≈ 4.95 µM)
- MIC (S. aureus; 18 h, S. aureus CMX 705): 0.03 µg/mL (≈ 0.0742 µM)
- MIC (S. aureus; 18 h, S. aureus CMX 730A): 0.03 µg/mL (≈ 0.0742 µM)
- MIC (S. aureus; 18 h, S. aureus GYR 1162): 0.03 µg/mL (≈ 0.0742 µM)
- MIC (S. aureus; [6]): 0.03 µg/mL (≈ 0.0742 µM)
- MIC (E. coli; 18 h, E. coli CMX 733): 0.03 µg/mL (≈ 0.0742 µM)
- MIC (E. coli; 18 h, E. coli CMX 744A): 0.03 µg/mL (≈ 0.0742 µM)
- MIC (E. coli; 18 h, E. coli CMX 756): 0.03 µg/mL (≈ 0.0742 µM)
- MIC (E. coli; [7]): 0.03 µg/mL (≈ 0.0742 µM)
- MIC (L. bozemanni): 0.5 µg/mL (≈ 1.24 µM)
- MIC (H. influenza; H. influenza 504): 150 ng/mL (≈ 0.371 µM)
- MIC (H. influenza; H. influenza 519A): 150 ng/mL (≈ 0.371 µM)
- MIC (H. influenza; H. influenza 566A): 150 ng/mL (≈ 0.371 µM)
- MIC (H. influenza; [8]): 8 ng/mL (≈ 0.0198 µM)
- MIC (E. faecalis; E. faecalis CMX 729G): 0.25 µg/mL (≈ 0.618 µM)
- MIC (E. faecalis; E. faecalis GYR 1166): 0.5 µg/mL (≈ 1.24 µM)
- MIC (K. pneumoniae; K. pneumoniae CMX 735A): 0.06 MCG/ML
- MIC (K. pneumoniae; [9]): 0.06 µg/mL (≈ 0.148 µM)

From patent US4962112A, “7-(2-methyl-4-aminopyrrolidinyl)naphthryidine and quinoline compounds” (Abbott Laboratories, priority 1988, dated 1990)
